Measured values: US20240150293A1, “SPIROCYCLOHEXANE DERIVATIVES, PHARMACEUTICAL COMPOSITIONS CONTAINING THEM AND THEIR USES AS ANTI-APOPTOTIC INHIBITORS” (LES LABORATOIRES SERVIER, priority 2021, published 2024)
Read-outs that look alike come from different tables or passages of the source.

Experiments:
[1] = target: Cy5-labelled Mcl1 (amino acids 171-321) C286S protein (UniProtKB Q07820) (Homo sapiens (Human), UniProt Q07820, C286S); experiment: Inhibition of Mcl-1 by the fluorescence quenching assay (Example A, Method B); format: binding
Sequence of Cy5-labelled Mcl1 (amino acids 171-321) C286S protein (Q07820 171-321 C286S): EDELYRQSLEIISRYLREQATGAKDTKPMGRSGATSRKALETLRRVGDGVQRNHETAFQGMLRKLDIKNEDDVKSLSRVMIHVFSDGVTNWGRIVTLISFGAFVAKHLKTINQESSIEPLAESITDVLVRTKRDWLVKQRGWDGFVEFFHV
In short: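 Eleven-point compound series incubated 2 h at room temperature with 1 nM Cy5-tagged protein and quencher-labelled PUMA peptide at 10, 20 or 400 nM in HEPES/NaCl/Tween 20, pH 7.4, 5% DMSO. IC50 for 50% fluorescence increase by 4-parameter fit, then Ki derived (complete cKi or estimated eKi).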

[2] = system: H929 multiple myeloma tumor line; experiment: In vitro cytotoxicity, MTT assay (Example B, Method A); format: cell-based; details: H929 cells, 48 hours exposure, read-out: C50
Protocol: The cytotoxicity studies were carried out on the H929 multiple myeloma tumor line.
The cells are distributed onto microplates and exposed to the test compounds for 48 hours. The cell viability is then quantified by a colorimetric assay, the Microculture Tetrazolium Assay (Carmichael et al, Cancer Res. 1987, 47, 939-942).
The results are expressed in C50 which means concentration corresponding to […] of effect/inhibition.

Mcl-1 protein = Mcl-1 protein (UniProtKB Q07820) (Homo sapiens (Human), UniProt Q07820); experiment: Inhibition of Mcl-1 by the fluorescence polarisation assay (Example A, Method A); format: binding; details: fluorescence polarization assay
Sequence of Mcl-1 protein (Q07820 whole entry): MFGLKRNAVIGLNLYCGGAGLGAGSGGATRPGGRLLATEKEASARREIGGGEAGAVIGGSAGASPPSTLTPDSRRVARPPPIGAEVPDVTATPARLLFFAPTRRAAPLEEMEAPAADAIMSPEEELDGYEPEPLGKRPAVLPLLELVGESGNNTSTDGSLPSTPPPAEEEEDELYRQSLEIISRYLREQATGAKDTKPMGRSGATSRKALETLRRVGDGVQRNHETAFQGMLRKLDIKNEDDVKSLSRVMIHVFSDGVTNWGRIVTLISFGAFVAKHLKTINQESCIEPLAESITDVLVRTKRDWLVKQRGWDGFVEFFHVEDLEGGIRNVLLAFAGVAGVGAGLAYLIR
In short: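 Protein (5 nM) and fluorescein-tagged peptide tracer (1 nM) incubated with 11-point compound series for 2 h at room temperature in HEPES/NaCl/Tween 20 buffer, pH 7.4, 5% DMSO. Displacement read as decrease in polarisation; IC50 fitted by 4-parameter logistic, converted to Ki (cKi or eKi).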

SMILES	Ki [1]	Ki (Mcl-1 protein)	IC50 [2]	IC50 ([2]; Homo sapiens, NCI-H929, 48 h)
C[C@@H]1CCCc2nccc(OCC(F)CC3Cc4ccccc4[C@]34CC[C@@](Nc3cccc(Cl)c3)(C(=O)O)CC4)c21 (single isomer, unassigned) [Example 508]	0.0203 µM	–	3.64 µM	–
Cc1cc2c(OCCC[C@H]3Cc4ccccc4[C@]34CC[C@@](Nc3cccc(Cl)c3)(C(=O)O)CC4)cccc2[nH]1 [Example 482, (1r,2′S,4S)-4-(3-chloroanilino)-2′-{3-[(2-methyl-1H-indol-4-yl)oxy]propyl}-2′,3′-dihydrospiro[cyclohexane-1,1′-indene]-4-carboxylic acid]	–	0.317 µM	–	12.4 µM
CC(C)C(COc1cccnc1)CC1Cc2ccccc2[C@]12CC[C@@](Nc1cccc(Cl)c1)(C(=O)O)CC2 (single isomer, unassigned) [Example 527, (1r,4r)-4-(3-chloroanilino)-2′-(3-methyl-2-{[(pyridin-3-yl)oxy]methyl}butyl)-2′,3′-dihydrospiro[cyclohexane-1,1′-indene]-4-carboxylic acid]	–	8.94 µM	16.4 µM	–
C[C@@H](COc1ccnc2c1CCC2)CC1Cc2ccccc2[C@]12CC[C@@](Nc1ccccc1)(C(=O)O)CC2 (stereo partly drawn) [Example 596, (1r,4R)-4-anilino-2′-{(2R)-3-[(6,7-dihydro-5H-cyclopenta[b]pyridin-4-yl)oxy]-2-methylpropyl}-2′,3′-dihydrospiro[cyclohexane-1,1′-indene]-4-carboxylic acid]	–	0.0312 µM	–	1.82 µM
O=C(O)[C@]1(Nc2cccc(Cl)c2)CC[C@]2(CC1)C(CCOc1ccncc1F)=Cc1ccccc12 [Example 190, (1r,4r)-4-(3-chloroanilino)-2′-{2-[(3-fluoropyridin-4-yl)oxy]ethyl}spiro[cyclohexane-1,1′-indene]-4-carboxylic acid]	–	0.0443 µM	–	6.4 µM
O=C(O)[C@]1(Nc2cccc(Cl)c2)CC[C@@]2(CC1)c1ccccc1C[C@@H]2C[C@@H](COc1ccccc1)c1ccccc1 [Example 556, (1r,2′S,4S)-4-(3-chloroanilino)-2′-[(2R)-3-phenoxy-2-phenylpropyl]-2′,3′-dihydrospiro[cyclohexane-1,1′-indene]-4-carboxylic acid]	–	7.19 µM	–	19.3 µM
C[C@@H](COc1ncnc2c1CCC2)CC1Cc2ccccc2[C@]12CC[C@@](Nc1cccc(Cl)c1)(C(=O)O)CC2 (stereo partly drawn) [Example 593, (1r,4R)-4-(3-chloroanilino)-2′-{(2R)-3-[(6,7-dihydro-5H-cyclopenta[d]pyrimidin-4-yl)oxy]-2-methylpropyl}-2′,3′-dihydrospiro[cyclohexane-1,1′-indene]-4-carboxylic acid]	–	0.0145 µM	–	2.01 µM
O=C(O)[C@]1(Nc2cccc(Cl)c2)CC[C@]2(CC1)C(c1ccc(Oc3ccccc3)cc1)=Cc1ccccc12 [Example 341, (1s,4s)-4-(3-chloroanilino)-2′-(4-phenoxyphenyl)spiro[cyclohexane-1,1′-indene]-4-carboxylic acid]	–	0.159 µM	–	9.26 µM
O=C(O)[C@]1(Nc2cccc(Br)c2)CC[C@@]2(C=Cc3c(Br)cccc32)CC1 [Example 60, (1r,4r)-4′-bromo-4-(3-bromoanilino)spiro[cyclohexane-1,1′-indene]-4-carboxylic acid]	–	0.276 µM	–	30 µM
O=C(O)[C@]1(Nc2cccc(Cl)c2)CC[C@@]2(CC1)c1ccccc1CC2CCCOc1ncnc2c1CCC2 (mixture of isomers) [Example 459, (1r,4r)-4-(3-chloroanilino)-2′-{3-[(6,7-dihydro-5H-cyclopenta[d]pyrimidin-4-yl)oxy]propyl}-2′,3′-dihydrospiro[cyclohexane-1,1′-indene]-4-carboxylic acid]	–	0.0857 µM	–	6.96 µM
O=C(O)[C@]1(Nc2cccc(Cl)c2)CC[C@@]2(CC1)c1ccccc1C[C@H]2C[C@@H](COc1cccnc1)c1ccccc1 [Example 549, (1r,2′R,4R)-4-(3-chloroanilino)-2′-{(2R)-2-phenyl-3-[(pyridin-3-yl)oxy]propyl}-2′,3′-dihydrospiro[cyclohexane-1,1′-indene]-4-carboxylic acid]	–	9.48 µM	–	17.9 µM

More lines, in order of falling Ki (Mcl-1 protein), values ahead:

Ki [1]	Ki (Mcl-1 protein)	SMILES	IC50 [2]	IC50 ([2]; Homo sapiens, NCI-H929, 48 h)
–	9.29 µM	Cc1cccc(C2Cc3ccccc3[C@]23CC[C@@](Nc2cccc(Cl)c2)(C(=O)O)CC3)c1 (single isomer, unassigned) [Example 346, (1r,4r)-4-(3-chloroanilino)-2′-(3-methylphenyl)-2′,3′-dihydrospiro[cyclohexane-1,1′-indene]-4-carboxylic acid]	30 µM	–
–	2.05 µM	CC(C)C(COc1ccccc1)CC1Cc2ccccc2[C@]12CC[C@@](Nc1cccc(Cl)c1)(C(=O)O)CC2 (single isomer, unassigned) [Example 530, (1r,4r)-4-(3-chloroanilino)-2′-[3-methyl-2-(phenoxymethyl)butyl]-2′,3′-dihydrospiro[cyclohexane-1,1′-indene]-4-carboxylic acid]	–	15.3 µM
–	0.934 µM	O=C(O)C1(Nc2cccc(Br)c2)CCC2(CCc3ccccc32)CC1 (stereo not drawn) [Example 57, 4-(3-bromoanilino)-2′,3′-dihydrospiro[cyclohexane-1,1′-indene]-4-carboxylic acid]	–	30 µM
–	0.816 µM	CCC1Cc2ccccc2C12CCC(Nc1cccc(Br)c1)(C(=O)O)CC2 (stereo not drawn) [Example 147, 4-(3-bromoanilino)-2′-ethyl-2′,3′-dihydrospiro[cyclohexane-1,1′-indene]-4-carboxylic acid]	–	30 µM
–	0.759 µM	Cc1c[nH]c2cccc(OCCC[C@H]3Cc4ccccc4[C@]34CC[C@@](Nc3cccc(Cl)c3)(C(=O)O)CC4)c12 [Example 484, (1r,2′S,4S)-4-(3-chloroanilino)-2′-{3-[(3-methyl-1H-indol-4-yl)oxy]propyl}-2′,3′-dihydrospiro[cyclohexane-1,1′-indene]-4-carboxylic acid]	–	9.64 µM
–	0.648 µM	O=C1c2ccccc2[C@]2(CC[C@@](Nc3cccc(Cl)c3)(C(=O)O)CC2)N1CCCOc1ccccc1 [Example 34, (1s,4s)-4-(3-chloroanilino)-3′-oxo-2′-(3-phenoxypropyl)-2′,3′-dihydrospiro[cyclohexane-1,1′-isoindole]-4-carboxylic acid]	–	30 µM
–	0.607 µM	O=C(O)[C@]1(Nc2cccc(Cl)c2)CC[C@@]2(CC1)c1ccccc1C[C@@H]2C[C@H](COc1cccnc1)c1ccccc1 [Example 551, (1r,2′S,4S)-4-(3-chloroanilino)-2′-{(2S)-2-phenyl-3-[(pyridin-3-yl)oxy]propyl}-2′,3′-dihydrospiro[cyclohexane-1,1′-indene]-4-carboxylic acid]	–	15.9 µM
–	0.226 µM	O=C(O)[C@]1(Nc2cccc(Cl)c2)CC[C@@]2(CC1)c1ccccc1CC2CCCOc1ccnc(F)c1 (mixture of isomers) [Example 427, (1r,4r)-4-(3-chloroanilino)-2′-{3-[(2-fluoropyridin-4-yl)oxy]propyl}-2′,3′-dihydrospiro[cyclohexane-1,1′-indene]-4-carboxylic acid]	–	17.4 µM
–	0.161 µM	CCOc1ccc2c(c1)[C@]1(CC[C@@](Nc3cccc(Cl)c3)(C(=O)O)CC1)C(c1cccc(Oc3ccccc3)c1)C2 (single isomer, unassigned) [Example 386, (1r,4r)-4-(3-chloroanilino)-6′-ethoxy-2′-(3-phenoxyphenyl)-2′,3′-dihydrospiro[cyclohexane-1,18′-indene]-4-carboxylic acid]	–	7.92 µM
–	0.0615 µM	O=C(O)[C@]1(Nc2cccc(Cl)c2)CC[C@]2(CC1)C(CCOc1cccc3[nH]ccc13)=Cc1ccccc12 [Example 192, (1r,4r)-4-(3-chloroanilino)-2′-{2-[(1H-indol-4-yl)oxy]ethyl}spiro[cyclohexane-1,1′-indene]-4-carboxylic acid]	–	4.19 µM
–	0.047 µM	O=C(O)[C@]1(Nc2cccc(Cl)c2)CC[C@@]2(CC1)c1ccccc1C[C@@H]2CCCOc1ccnc2ccsc12 [Example 440, (1r,2′S,4S)-4-(3-chloroanilino)-2′-{3-[(thieno[3,2-b]pyridin-7-yl)oxy]propyl}-2′,3′-dihydrospiro[cyclohexane-1,1′-indene]-4-carboxylic acid]	–	3.48 µM
–	0.03 µM	O=C(O)[C@]1(Nc2cccc(Cl)c2)CC[C@@]2(CC1)c1ccccc1CC2CCCOc1ccnc2c1CCC2 (stereo partly drawn) [Example 452, (1r,4r)-4-(3-chloroanilino)-2′-{3-[(6,7-dihydro-5H-cyclopenta[b]pyridin-4-yl)oxy]propyl}-2′,3′-dihydrospiro[cyclohexane-1,1′-indene]-4-carboxylic acid]	–	2.44 µM
–	0.0299 µM	C[C@@H](COc1ncnc2c1C(C)(C)CC2)CC1Cc2ccccc2[C@]12CC[C@@](Nc1cccc(Cl)c1)(C(=O)O)CC2 (stereo partly drawn) [Example 595, (1r,4R)-4-(3-chloroanilino)-2′-{(2R)-3-[(5,5-dimethyl-6,7-dihydro-5H-cyclopenta[d]pyrimidin-4-yl)oxy]-2-methylpropyl}-2′,3′-dihydrospiro[cyclohexane-1,1′-indene]-4-carboxylic acid]	–	1.51 µM
